Our source for the IC50 values is ChEMBL document CHEMBL5532682, “Recent advances of tryptanthrin and its derivatives as potential anticancer agents” (RSC Med Chem, 2024).

Data set [1] relates to A549. The data set can be described thus: Antiproliferative activity against human A549 cells measured after 48 hrs by MTT assay. To be noted: A549, 48 h. The class given is functional, cell-based. (In general: Tetrazolium dyes change colour on reduction, which living cells bring about.)
Data set [2] deals with MDA-MB-231. The experiment in a line: Antiproliferative activity against human MDA-MB-231 cells measured after 48 hrs by MTT assay. Type of data set: functional, cell-based. The note with it: MDA-MB-231, 48 h.
For data set [3], the system named is HCT-116. The experiment in a line: Antiproliferative activity against human HCT-116 cells measured after 48 hrs by MTT assay. Type of data set: functional, cell-based. To be noted: HCT-116, 48 h.
The test system of data set [4] is A549. The data set can be described thus: Antiproliferative activity against human A549 cells measured after 48 hrs. The class given is functional, cell-based. To be noted: A549, 48 h.
Data set [5] concerns HCT-116. The data set can be described thus: Antiproliferative activity against human HCT-116 cells measured after 48 hrs. To be noted: HCT-116, 48 h. The class given is functional, cell-based.
Data set [6] relates to MDA-MB-231. The experiment in a line: Antiproliferative activity against human MDA-MB-231 cells measured after 48 hrs. Type of data set: functional, cell-based. To be noted: MDA-MB-231, 48 h.
In data set [7] the test system is MCF7. The experiment in a line: Antiproliferative activity against human MCF7 cells assessed as inhibition of cell growth. Type of data set: functional, cell-based.
For data set [8], the system named is A549. The experiment in a line: Antiproliferative activity against human A549 cells assessed as inhibition of cell growth. Type of data set: functional, cell-based.
In data set [9] the test system is HeLa. The data set can be described thus: Antiproliferative activity against human HeLa cells assessed as inhibition of cell growth. The class given is functional, cell-based.
A short description of data set [10]: Antiproliferative activity against mouse MC3T3-E1 cells. The class given is toxicity, cell-based.
Data set [11] concerns A549. The data set can be described thus: Antiproliferative activity against human A549 cells. The class given is functional, cell-based.

For `O=C1c2c(ccc(Cl)c2N2CCOCC2)-n2c1nc1ccccc1c2=O`, the 50% inhibitory concentration (IC50) in [1] is over 100 µM; in data set [2], over 100 µM; in [3] it was 10.7 µM.

Turning to `O=C1c2c(ccc(F)c2N2CCCCC2)-n2c1nc1ccccc1c2=O`, the IC50 in [1] was over 100 µM; in [2], over 100 µM; in data set [4], over 100 µM; in [5], 64.2 µM; in data set [6], over 100 µM; in data set [3], 64.2 µM.

As to `O=c1c2ccccc2nc2n1-c1ccccc1/C2=N/N=c1/scc(-c2ccc(Br)cc2)n1-c1ccccc1`, the IC50 came to 31.6 µM in [7], 64.9 µM in data set [8] and 55.5 µM in data set [9].

With `CN(C)c1c(Cl)ccc2c1C(=O)c1nc3ccccc3c(=O)n1-2`, the IC50 came to 18.6 µM in data set [1], 14.7 µM in data set [2] and 25.7 µM in data set [3].

`O=c1c2ccccc2nc2n1-c1ccccc1/C2=N/N=c1/scc(-c2ccc([N+](=O)[O-])cc2)n1-c1ccccc1`: the results for the IC50 in data set [7], in [8] and in data set [9] were 43.1 µM, 52.8 µM and 67 µM, respectively.

Regarding `O=C1c2c(ccc(F)c2Cl)-n2c1nc1ccc(F)c(Cl)c1c2=O`, the IC50 turned out to be 68.3 µM in data set [10] and 0.51 µM in data set [11].

Turning to `O=C1c2cc(Cl)c(N3CCCCC3)cc2-n2c1nc1ccccc1c2=O`, the IC50 in [4], in [5] and in [6] was over 100 µM throughout.

`O=c1c2ccccc2nc2n1-c1ccccc1/C2=N/N=c1/scc(-c2ccc(F)cc2)n1-c1ccccc1`: the values for the IC50 in data set [7], in data set [8] and in data set [9] were 60.1 µM, 44.4 µM and 52 µM, respectively.

For `O=c1c2ccccc2nc2n1-c1ccccc1/C2=N/N=c1/scc(-c2ccc(Cl)cc2)n1-c1ccccc1`, the IC50 in data set [7] was 46.1 µM; in [8], 65.5 µM; in data set [9], 75.2 µM.

For the compound `O=C1C2C=CC=CC2=NC2/C(=N\Nc3nc(-c4ccccc4)cs3)c3ccccc3N12` (configuration not stated), the IC50 in data set [7] was found to be 40.5 µM; in data set [8], 52 µM; in [9], 46 µM.

Turning to `COc1ccc(-c2csc(N/N=C3/c4ccccc4N4C(=O)C5C=CC=CC5=NC34)n2)cc1` (configuration not stated), the results for the IC50 in data set [7], in data set [8] and in [9] were 45.9 µM, 52 µM and 65.5 µM, respectively.

Take `Cc1ccc2c(c1N(C)C)C(=O)c1nc3ccccc3c(=O)n1-2`: the values for the IC50 in data set [1], in data set [2] and in [3] were 98 µM, 87.3 µM and over 100 µM, respectively.

As for `N#Cc1ccc(-c2cs/c(=N/N=C3/c4ccccc4-n4c3nc3ccccc3c4=O)n2-c2ccccc2)cc1`, the IC50 in data set [7] came to 44.4 µM; in [8], 28.8 µM; in data set [9] it was 43.8 µM.

For the compound `O=C1c2cc(Cl)ccc2-n2c1nc1cc(Cl)ccc1c2=O`, the IC50 in [10] and in data set [11] was over 100 µM throughout.

In the case of `CN1CCN(c2cccc3c2C(=O)c2nc4ccccc4c(=O)n2-3)CC1`, the IC50 was over 100 µM in data set [1], over 100 µM in data set [2] and 45.6 µM in [3].

In the case of `O=C1c2ccccc2-n2c1nc1ccc(Cl)c(Cl)c1c2=O`, the IC50 in data set [10] and in [11] was over 100 µM in each case.

Regarding `CN(C)c1cccc2c1C(=O)c1nc3ccccc3c(=O)n1-2`, the IC50 in [4], in data set [5] and in data set [6] was over 100 µM throughout.

As for `O=C1c2ccccc2-n2c1nc1ccc(F)c(Cl)c1c2=O`, the IC50 in [10] and in [11] was over 100 µM in each case.

As to `COc1ccc(-c2cs/c(=N/N=C3/c4ccccc4-n4c3nc3ccccc3c4=O)n2-c2ccccc2)cc1`, the concentration for half-maximal inhibition (IC50) in [7] turned out to be 52.3 µM; in [8] it was 63 µM; in [9] it was 40.2 µM.

In the case of `O=C1c2c(ccc(F)c2N2CCOCC2)-n2c1nc1ccccc1c2=O`, the IC50 in data set [1], in data set [2], in data set [4], in data set [5], in data set [6] and in data set [3] was over 100 µM each time.

Regarding `Cc1ccc2c(c1N1CCOCC1)C(=O)c1nc3ccccc3c(=O)n1-2`, the IC50 in [1] is over 100 µM; in data set [2], 58.7 µM; in [3] it was over 100 µM.

As to `Cc1ccc2c(c1N1CCN(C)CC1)C(=O)c1nc3ccccc3c(=O)n1-2`, the results for the IC50 in data set [1], in [2] and in [3] were 52.6 µM, over 100 µM and over 100 µM, respectively.

For `O=C1c2c(N3CCNCC3)cccc2-n2c1nc1ccccc1c2=O`, the IC50 in [1] was over 100 µM; in [2], over 100 µM; in data set [4] it was 13.7 µM; in data set [5], 90 µM; in [6] it was 56.1 µM; in data set [3], over 100 µM.

`O=c1c2ccccc2nc2n1-c1ccccc1/C2=N/N=c1/scc(-c2ccccc2)n1-c1ccccc1`: the IC50 in data set [7] turned out to be 50.2 µM; in data set [8], 51.6 µM; in data set [9] it was 56.6 µM.

Turning to `O=C1c2c(ccc(Cl)c2N2CCN(c3ccccn3)CC2)-n2c1nc1ccccc1c2=O`, the IC50 in data set [1], in data set [2] and in data set [3] was over 100 µM in each case.

In turn, `CC[C@@]1(O)C(=O)OCc2c1cc1n(c2=O)Cc2cc3ccccc3nc2-1` [CAMPTOTHECIN] displayed a half-inhibitory concentration (IC50) in data set [11] of 0.39 µM.

Consider `O=C1c2c(ccc(Cl)c2N2CCN(CCO)CC2)-n2c1nc1ccccc1c2=O`, for which the figures for the IC50 in data set [1], in data set [2] and in [3] were 22.8 µM, 32.8 µM and over 100 µM, respectively.

As for `O=C1c2c(ccc(F)c2Cl)-n2c1nc1cc(Cl)ccc1c2=O`, the values for the IC50 in [10] and in data set [11] were 82 µM and 1.03 µM, respectively.

`Cc1ccc2c(c1N1CCNCC1)C(=O)c1nc3ccccc3c(=O)n1-2`: the IC50 is over 100 µM in [1], 69.8 µM in data set [2] and 67.2 µM in [3].

`CN1CCN(c2c(F)ccc3c2C(=O)c2nc4ccccc4c(=O)n2-3)CC1`: the IC50 in data set [1], in [2] and in data set [3] was over 100 µM in each case.

For the compound `Cc1ccc2c(c1N1CCN(CCO)CC1)C(=O)c1nc3ccccc3c(=O)n1-2`, the IC50 in data set [1], in data set [2] and in [3] was over 100 µM throughout.

Regarding `O=C1c2c(ccc(Cl)c2N2CCNCC2)-n2c1nc1ccccc1c2=O`, the IC50 in data set [1] is 34.5 µM; in data set [2] it was 31.6 µM; in data set [3], over 100 µM.

`O=C1c2ccccc2-n2c1nc1cc(Cl)ccc1c2=O`: the IC50 in data set [10] and in [11] was over 100 µM each time.

On to `O=C1C2C=CC=CC2=NC2/C(=N\Nc3nc(-c4ccc(O)cc4)cs3)c3ccccc3N12` (configuration not stated), for which the IC50 came out at 31.6 µM in data set [7], 28.8 µM in data set [8] and 7.22 µM in [9].

For the compound `O=C1c2cc(Cl)ccc2-n2c1nc1ccc(Cl)c(Cl)c1c2=O`, the IC50 in data set [10] and in [11] was over 100 µM throughout.

In the case of `CCN(CC)c1c(Cl)ccc2c1C(=O)c1nc3ccccc3c(=O)n1-2`, the figures for the IC50 in data set [1], in [2] and in [3] were 1.48 µM, 1.78 µM and 1.29 µM, respectively.

For `O=C1c2c(ccc(F)c2N2CCNCC2)-n2c1nc1ccccc1c2=O`, the IC50 in data set [1] is over 100 µM; in [2] it was 65.8 µM; in data set [3] it was over 100 µM.

As to `CCN(CC)c1cccc2c1C(=O)c1nc3ccccc3c(=O)n1-2`, the IC50 in data set [1] was over 100 µM; in [2], 48.3 µM; in data set [3] it was 1.62 µM.

Turning to `O=C1c2cc(Cl)ccc2-n2c1nc1ccc(F)c(Cl)c1c2=O`, the IC50 in data set [10] and in data set [11] was over 100 µM each time.

For `O=C1c2cc(F)ccc2-n2c1nc1ccc(F)c(Cl)c1c2=O`, the figures for the IC50 in [10] and in data set [11] were 89.7 µM and over 100 µM, respectively.

Regarding `O=C1C2C=CC=CC2=NC2/C(=N\Nc3nc(-c4ccc([N+](=O)[O-])cc4)cs3)c3ccccc3N12` (configuration not stated), the IC50 in data set [7] amounted to 59.1 µM; in [8], 49.1 µM; in data set [9], 67 µM.

Regarding `O=c1c2ccccc2nc2n1-c1ccccc1/C2=N/N=c1/scc(-c2ccc(O)cc2)n1-c1ccccc1`, the figures for the IC50 in data set [7], in [8] and in data set [9] were 58.5 µM, 38.3 µM and 55.1 µM, respectively.

For `CN(C)c1c(F)ccc2c1C(=O)c1nc3ccccc3c(=O)n1-2`, the IC50 in data set [1] was over 100 µM; in data set [2] it was 89.7 µM; in data set [3], over 100 µM.

`CCN(CC)c1c(F)ccc2c1C(=O)c1nc3ccccc3c(=O)n1-2`: the IC50 is 1.2 µM in [1], 0.8 µM in data set [2] and 2.01 µM in [3].

With `Cc1ccc2c(c1N1CCCCC1)C(=O)c1nc3ccccc3c(=O)n1-2`, the IC50 in data set [1], in data set [2] and in [3] was over 100 µM in each case.

In the case of `O=C1c2c(N3CCN(CCO)CC3)cccc2-n2c1nc1ccccc1c2=O`, the IC50 in [1] was over 100 µM; in data set [2], 34.2 µM; in data set [3], over 100 µM.

Take `O=C1c2cc(F)ccc2-n2c1nc1cc(Cl)ccc1c2=O`: the IC50 in data set [10] and in [11] was over 100 µM in each case.

Regarding `O=C1c2c(ccc(Cl)c2Cl)-n2c1nc1ccc(F)c(Cl)c1c2=O`, the 50% inhibitory concentration (IC50) in [10] was 67.2 µM; in [11], over 100 µM.

Regarding `CCN(CC)c1cc2c(cc1Cl)C(=O)c1nc3ccccc3c(=O)n1-2`, the IC50 in data set [4] is 1.48 µM; in [5], 1.29 µM; in [6] it was 1.78 µM.

Regarding `CN1CCN(c2c(Cl)ccc3c2C(=O)c2nc4ccccc4c(=O)n2-3)CC1`, the IC50 in data set [1], in data set [2] and in data set [3] was over 100 µM each time.

Regarding `Cc1ccc2c(c1N1CCN(c3ccccn3)CC1)C(=O)c1nc3ccccc3c(=O)n1-2`, the IC50 in [1], in data set [2] and in data set [3] was over 100 µM each time.

With `O=C1c2c(ccc(Cl)c2N2CCCCC2)-n2c1nc1ccccc1c2=O`, the IC50 in data set [1], in data set [2] and in data set [3] was over 100 µM in each case.

The IC50 is the point on the concentration scale where inhibition reaches its midpoint.
